# According to US8546427B2, “Tetrahydroquinoline derivatives” (Hoffmann-La Roche Inc., priority 2010, dated 2013):
# Tested on: AMP-activated protein kinase (AMPK)
# Test: ADP Quest assay for AMPK activators
# Type: biochemical
# Set-up: key: fold AMPK activation at 30 μM activator vs none
# Conditions: fold of AMPK activation to phosphorylate SAMS peptide without and with an activator at the concentration of 30 μM
# Description: This method evaluates AMP-activated protein kinase (AMPK) activity through detecting the accumulation of ADP product using an ADP Quest kit and determining the E30 values of the small molecular AMPK activators. ADP Quest kit (DiscoveRx, Fremont, Calif.) is stored at −20° C. before use. Before an experiment, thaw the kit (include assay buffer, ADP standard solution, reagent A and reagent B) and equilibrate to room temperature. Dispense the ADP Quest reagents into single-use aliquots and store at −20° C. The compound concentrations typically range from 0 μM to 100 μM by 2-fold dilution. AMP concentrations range from 0.98 μM to 1 mM as the reference control. In an assay, thaw and equilibrate the assay buffer, reagent A and reagent B to room temperature for 30 minutes prior to use. Mix ATP, SAMS peptide substrate and compound, and place them into the 384-well assay plate. Add reagent A and B based on the assay kit protocol. Incubate the assay plate at room temperature for 30 minutes after addition the mixture followed by the addition of AMPK protein (Invitrogen, CA) to initiate the AMPK phosphorylation reaction. At the same time, reactions with AMPK activator AMP in the absence of enzyme is included as blank control. The reaction fluorescence signal is monitored and recorded on Envision in kinetic mode with the excitation wavelength of 530 nm and emission wavelength of 590 nm. The E30 value, defined as the fold of AMPK activation to phosphorylate SAMS peptide without and with an activator at the concentration of 30 μM, is calculated and analyzed using Prism 5.0.
row,E30,SMILES
1,1.34,"CC1(C)CC(c2ccccc2NS(=O)(=O)c2cccnc2)Nc2ccc(Cl)cc21 (stereo not shown) [Example-36, Pyridine-3-sulfonic acid [2-(6-chloro-4,4-dimethyl-1,2,3,4-tetrahydro-quinolin-2-yl)-phenyl]-amide]"
2,1.89,"CCS(=O)(=O)Nc1ccccc1C1CC(C)(C)c2cc(Cl)ccc2N1 (stereo not shown) [Example-16, Ethanesulfonic acid [2-(6-chloro-4,4-dimethyl-1,2,3,4-tetrahydro-quinolin-2-yl)-phenyl]-amide]"
3,2.41,"CC1(C)CC(c2ccccc2NS(=O)(=O)c2cccc(F)c2)Nc2ccc(C(=O)O)cc21 (stereo not shown) [Example-42, 2-[2-(3-Fluoro-benzenesulfonylamino)-phenyl]-4,4-dimethyl-1,2,3,4-tetrahydro-quinoline-6-carboxylic acid]"
4,1.64,"CC1(C)CC(c2ccccc2NS(=O)(=O)c2ccc(F)cc2)Nc2ccc(Cl)cc21 (stereo not shown) [Example-19, N-[2-(6-Chloro-4,4-dimethyl-1,2,3,4-tetrahydro-quinolin-2-yl)-phenyl]-4-fluoro-benzenesulfonamide]"
5,1.20,"CC1(C)CC(c2ccccc2NC(=O)c2cccc(F)c2)Nc2ccc(C(=O)O)cc21 (stereo not shown) [Example-37, 2-[2-(3-Fluoro-benzoylamino)-phenyl]-4,4-dimethyl-1,2,3,4-tetrahydro-quinoline-6-carboxylic acid]"

# Second part, the compound before the results:
row,SMILES,E30
1,"CC1(C)CC(c2ccccc2NC2(C(=O)O)CC2)Nc2ccc(Cl)cc21 (stereo not shown) [Example-22, 1-[2-(6-Chloro-4,4-dimethyl-1,2,3,4-tetrahydro-quinolin-2-yl)-phenylamino]-cyclopropanecarboxylic acid]",1.40
2,"CC(C)S(=O)(=O)Nc1ccccc1C1CC(C)(C)c2cc(C#N)ccc2N1 (stereo not shown) [Example-50, Propane-2-sulfonic acid [2-(6-cyano-4,4-dimethyl-1,2,3,4-tetrahydro-quinolin-2-yl)-phenyl]-amide]",1.19
3,"Cc1cc(F)cc2c1NC(c1cccc(NC(C)(C)C(=O)O)c1)CC2(C)C (stereo not shown) [Example-31, 2-[3-(6-Fluoro-4,4,8-trimethyl-1,2,3,4-tetrahydro-quinolin-2-yl)-phenylamino]-2-methyl-propionic acid]",2.16
4,"CCS(=O)(=O)Nc1ccccc1C1CC(C)(C)c2cc(C(=O)O)ccc2N1 (stereo not shown) [Example-33, 2-(2-Ethanesulfonylamino-phenyl)-4,4-dimethyl-1,2,3,4-tetrahydro-quinoline-6-carboxylic acid]",2.13
5,"CC(C)(Nc1cccc(C2CC(C)(C)c3cc(C(F)(F)F)ccc3N2)c1)C(=O)O (stereo not shown) [Example-9, 2-[3-(4,4-Dimethyl-6-trifluoromethyl-1,2,3,4-tetrahydro-quinolin-2-yl)-phenylamino]-2-methyl-propionic acid]",2.34
6,"CN1c2ccc(C(F)(F)F)cc2C(C)(C)CC1c1cccc(NC(C)(C)C(=O)O)c1 (stereo not shown) [Example-11, 2-Methyl-2-[3-(1,4,4-trimethyl-6-trifluoromethyl-1,2,3,4-tetrahydro-quinolin-2-yl)-phenylamino]-propionic acid]",2.48
7,"CC(C)(Nc1ccccc1C1CC(C)(C)c2cc(C#N)ccc2N1)C(=O)O (stereo not shown) [Example-20, 2-[2-(6-Cyano-4,4-dimethyl-1,2,3,4-tetrahydro-quinolin-2-yl)-phenylamino]-2-methyl-propionic acid]",1.57
8,"CC(C)(Nc1cccc(C2CC(C)(C)c3cc(Cl)cc(C(=O)O)c3N2)c1)C(=O)O (stereo not shown) [Example-7, 2-[3-(1-Carboxy-1-methyl-ethylamino)-phenyl]-6-chloro-4,4-dimethyl-1,2,3,4-tetrahydro-quinoline-8-carboxylic acid]",2.27
